Results from PMC8653662, “Cytotoxicity and Immunogenicity Evaluation of Synthetic Cell-penetrating Peptides for Methotrexate Delivery” (Iranian Journal of Pharmaceutical Research : IJPR, 2021).
Ends that are not written are not given here. MTX = methotrexate

Experiments:
Raji cells = assay: MTT cell viability assay; format: cell-based, Human; conditions: for cytotoxicity of CPPs: 5, 10, 25 and 50 μM, 24, 48 and 72 h, 570 nm, mean of three independent experiments in duplicate
Protocol: Human lymphoma cell line (Raji) was cultured in 75 cm^2 cell culture flasks containing RPMI 1640 medium (Gibco), which was supplemented with 10% FBS, 2 mM L-glutamine, 100 units/mL penicillin, and 100 µg/mL streptomycin ([29]). The cell culture was carried out in a humidified atmosphere of 5% CO2, 95% air, and 37 °C. The cell viability of CPPs and peptide-MTX conjugates was determined by MTT assay in Raji cells. […] […] The cell viability was determined by measuring the amount of MTT transformed to formazan salt using an ELISA reader at 570 nm (Bioteck Instruments, Winooski, VT, USA). The results were the means of three independent experiments performed in duplicate.

[1] = Zetasizer hydrodynamic size distribution and zeta potential; format: physicochemical; conditions: Zetasizer Nano ZS, distilled water pH 7.4, 25 °C, repeated three times
Protocol: The size and morphology of NGRWR peptide and NGRWR-E8 nanoparticles (as representatives) were examined by scanning electron microscopy (SEM, Mira3 FEG-SEM Tescan 5.0 kV). Samples were prepared by drop-casting of a 5 mM aqueous solution (20 µL) onto the mica surface. Then, they were lyophilized, coated with gold, and analyzed with a […] of SEM. Zetasizer Nano ZS (Malvern Instruments, Worcestershire, UK) was employed to examine the mean hydrodynamic diameter, size distribution, and zeta potential of NGRWR peptide and NGRWR-E8 nanoparticles. To this end, the samples were diluted in distilled water (pH 7.4), and the experiment was repeated three times per sample at 25 °C.

TNF-α = format: cell-based, Human; conditions: Raji cells; LPS 10 μg/mL; 48 h; positive control
Protocol: (§1) As a positive control, cells were incubated with 10 μg/mL of lipopolysaccharide (LPS) to induce IL-6 and TNF-α release. Then, the supernatant was collected and IL-6 and TNF-α secretion was evaluated using standard ELISA kits.

IL-6 = format: cell-based, Human; conditions: Raji cells; LPS 10 μg/mL; 48 h; positive control
Protocol: as §1

WRWRWRWR [[WR]4, linear cell-penetrating peptide WRWRWRWR]
cell viability (Raji cells; 5 μM peptide, 24 h): 40%

WWWWKKKK [W4K4, linear cell-penetrating peptide WWWWKKKK]
cytotoxicity of CPPs (Raji cells): no significant cytotoxicity

WRNGRWR-MTX (WRNGRWR-{MTX})
cytotoxic effect of peptide-MTX conjugates (Raji cells; 25 nM MTX, 48 h after treatment): no significant cytotoxic effect

WKWKWKWK [[WK]4, linear cell-penetrating peptide WKWKWKWK]
cytotoxicity of CPPs (Raji cells): no significant cytotoxicity

NGRWRWRWR [linear cell-penetrating peptide …]
size distribution, population of 16% of particles [1]: 50 nm | size distribution, population of 20% of particles [1]: 37 nm | size distribution, population of 21% of particles [1]: 50-250 nm | size distribution, population of 43% of particles [1]: 26 nm | zeta potential [1]: +11 mV | cytotoxicity of CPPs (Raji cells): no significant cytotoxicity

RRRRRR [R6, linear polyarginine peptide RRRRRR]
cytotoxicity of CPPs (Raji cells): no significant cytotoxicity

lipopolysaccharide [LPS]
TNF-α level enhancement over the control group (TNF-α): 100 times | IL-6 level enhancement over the control group (IL-6): 100 times

WWWWRRRR [W4R4, linear cell-penetrating peptide WWWWRRRR]
cytotoxicity of CPPs (Raji cells): no significant cytotoxicity

WRWRWRNGR [linear cell-penetrating peptide …]
cytotoxicity of CPPs (Raji cells): no significant cytotoxicity

WRWNGRWRW [WRNGRWR, linear cell-penetrating peptide …]
cytotoxicity of CPPs (Raji cells): no significant cytotoxicity
